Results: patent US3939263A, “Methods of combatting insects and acarina using oxygenated derivatives of S-(tert-bulythio)methyl O,O-diethyl phosphorodithioate and phosphorothioate” (priority 1974, dated 1976)

Legend:
Housefly = Housefly feeding test in sugar water; type: in vivo, Musca domestica Linneaus; conditions: Musca domestica; 5 ppm in sugar water; counts after 1 day and 3 days; read-out: % Kill, Housefly
Experimental: Housefly -- Musca domestica Linneaus
Groups of 25 adult female houseflies three to 5 days old are lightly anesthetized with CO2, placed in wide-mouthed pint mason jars, and covered with a screen cap. The test compound is a 100 ppm. 35/65% water/acetone solution. Two milliliters of this is pipetted into a 10-dram vial and diluted to 40 ml. with 10% sugar solution, giving a final concentration of 5 ppm. in sugar water. The mouth of the vial is covered with a single layer of cheesecloth, inverted and placed on the screen cap of the fly jar, so that the flies can feed on the solution through the screen. Mortality counts are made after 1 day and 3 days at 80°F., 50% r.h.

Tarnished Plant Bug = experiment: Tarnished Plant Bug, treated cotton leaf, 2-day mortality; type: in vivo, Lygus Lineolaris (Palisot de Beauvois); conditions: Lygus lineolaris, 48 h, 2 days, read-out: % Kill, Tarnished Plant Bug
Experimental: Tarnished Plant Bug -- Lygus Lineolaris (Palisot de Beauvois)
A cotton plant with two true leaves expanded is dipped for 3 seconds with agitation in a 35/65% water/acetone mixture containing 100 ppm. of test compound and set in the hood to dry. One leaf is removed and placed in an 8-ounce waxed cup containing a wet 2-inch dental wick and 10 adult tarnished plant bugs, and a clear plastic lid is snapped on. After 2 days at 80°F., 50% r.h., mortality counts are made.

Malaria Mosquito = Malaria Mosquito adult test, treated slide; type: in vivo, Anopheles quadrimaculatus Say; conditions: Anopheles quadrimaculatus, 24 h, adults, one day, read-out: % Kill, Malaria Mosquito
Experimental: Malaria Mosquito -- Anopheles quadrimaculatus Say -- Adult Test
Ten ppm. acetone solutions of test compounds are poured into wide-mouth 2-ounce jars each containing a microscope slide. The slides are removed from the test solution with forceps and laid horizontally to dry on a wide-mouth 4-ounce bottle. When dry, they are placed in the same 4-ounce bottle and 10 4-to 5-day-old mosquitoes of mixed sexes are added to each bottle. A piece of cotton gauze held on by an elastic band serves as a lid and wad of cotton soaked in 10% honey solution serves as food. Mortality counts are made after one day at 80°F., 50% r.h.

Southern Corn Rootworm = experiment: Soil Insecticide test, Southern Corn Rootworm; type: in vivo, Diabrotica undecimpunctata howardi Barber; conditions: 144 h, 6 days, read-out: % Kill, Soil Insecticide, Southern Corn Rootworm; for mortality at 1 ppm: 1 ppm in soil; for mortality at 10 ppm: 10 ppm in soil; for mortality at 100 ppm: 100 ppm in soil
Experimental: Southern Corn Rootworm -- Diabrotica undecimpunctata howardi Barber
[…] Twelve and one-half milliliters of Littleton silt loam soil and 1 milliliter of millet seed (food for larvae) are added, the jars capped and the contents thoroughly mixed about 2 minutes on a rotary tumbler. Each jar then receives 5 ml. of tap water and ten southern corn rootworm larvae (Diabrotica undecimpunctata howardi Barber) 6 to 8 days old. The jars are loosely capped and placed in the holding room at 26.7°C. and 60% r.h. with constant light. Mortality counts are made after 6 days. Corrected percent mortality data is recorded on standard forms.

[1] = system: Western Potato Leafhopper; experiment: Western Potato Leafhopper, dipped lima bean leaf; type: in vivo, Empoasca abrupta Say; conditions: 48 h, 2 days, read-out: % Kill, Western Potato Leafhopper
Text: Western Potato Leafhopper -- Empoasca abrupta Say
A Sieva lima bean plant with the primary leaf expanded to 3 to 4 inches is dipped into a 35/65% water/acetone mixture containing 100 ppm. of test compound and set in the hood to dry. A 1-inch piece of the tip of one leaf is cut off and placed in a 4-inch petri dish with a moist filter paper in the bottom. From three to 10 second-instar nymphs are tapped from the culture plants into the test dish and rapidly covered. Mortality counts are made after 2 days at 80°F., and 50% r.h.

insects = experiment: Insecticidal activity compared with art compound; type: in vivo; conditions: versus O,O-diethyl S-(tert-butylsulfinyl)methyl phosphorodithioate
mice = experiment: Mammalian toxicity, LD50 in mice; type: in vivo, male albino mice of the CFI strain; conditions: versus O,O-diethyl S-(tert-butylsulfinyl)methyl phosphorodithioate
Experimental: For the tests reported in Table II, 20 male albino mice of the CFI strain, weighing approximately 18 grams to 20 grams are selected. The phosphates are readied for administration by preparing a solution or dispersion in corn oil (Mazola), the concentration of which is adjusted so that the total volume of the dose is 0.5 ml./kg. in every case. The initial solution is prepared by deciding upon the maximum dosage in mg./kg. to be administered and preparing 10 ml. of this solution of such a concentration that the desired dosage in mg./kg. is delivered when 0.5 ml. of the solution is administered for 20 grams of mouse body weight. Serial dilutions differing by a factor of two are then prepared for each lower dosage level. LD50 stands for the lethal dose in mg./kg. which kills 50% of the mice.

## CCOP(=S)(OCC)SC[S+]([O-])C(C)(C)C (stereo not drawn) [O,O-diethyl S-(tert-butylsulfinyl)methyl phosphorodithioate, reference compound]
Housefly
  mortality at 5 ppm: 100%
Tarnished Plant Bug
  mortality at 100 ppm: 100%
Malaria Mosquito
  mortality at 1 ppm: 0%
  mortality at 10 ppm: 80%
Southern Corn Rootworm
  mortality at 1 ppm: 95%
  mortality at 10 ppm: 100%
  mortality at 100 ppm: 100%
[1]
  mortality at 10 ppm: 100%
  mortality at 100 ppm: 100%

## CCOP(=S)(OCC)SCS(=O)(=O)C(C)(C)C [O,O-diethyl S-(tert-butylsulfonyl)methyl Phosphorodithioate]
Housefly
  mortality at 5 ppm: 100%
insects
  insecticidal activity relative to art compound: equal to, and in some cases superior to, this art compound
mice
  toxicity to mammals (mice) relative to art compound: much less toxic to mammals (mice) than the art compound
Tarnished Plant Bug
  mortality at 100 ppm: 100%
Malaria Mosquito
  mortality at 1 ppm: 50%
  mortality at 10 ppm: 100%
Southern Corn Rootworm
  mortality at 1 ppm: 100%
  mortality at 10 ppm: 100%
  mortality at 100 ppm: 100%

## CCOP(=O)(OCC)SCS(=O)(=O)C(C)(C)C [O,O-diethyl S-(tert-butylsulfonyl)methyl Phosphorothioate]
Housefly
  mortality at 5 ppm: 100%
Tarnished Plant Bug
  mortality at 100 ppm: 100%
Malaria Mosquito
  mortality at 1 ppm: 0%
  mortality at 10 ppm: 50%
Southern Corn Rootworm
  mortality at 1 ppm: 0%
  mortality at 10 ppm: 100%
  mortality at 100 ppm: 100%
[1]
  mortality at 10 ppm: 100%
  mortality at 100 ppm: 100%

## CCOP(=O)(OCC)SC[S+]([O-])C(C)(C)C (stereo not drawn) [O,O-diethyl S-(tert-butylsulfinyl)methyl Phosphorothioate]
Housefly
  mortality at 5 ppm: 100%
Tarnished Plant Bug
  mortality at 100 ppm: 100%
Malaria Mosquito
  mortality at 1 ppm: 40%
  mortality at 10 ppm: 100%
Southern Corn Rootworm
  mortality at 1 ppm: 61%
  mortality at 10 ppm: 100%
  mortality at 100 ppm: 100%
[1]
  mortality at 10 ppm: 100%
  mortality at 100 ppm: 100%
